Assay results as given in article PMC10489644, “In Vitro Evaluation of the Potential for Drug Interactions by Salidroside” (Nutrients, 2023).
pIC50: −log10 of the molar value.

Key:
[1] = target: T1, recombinant human MAO-A (Homo sapiens, UniProt P21397); experiment: MAO inhibition, kynuramine oxidation to 4-hydroxyquinoline; format: biochemical
T1 sequence (P21397 1-527): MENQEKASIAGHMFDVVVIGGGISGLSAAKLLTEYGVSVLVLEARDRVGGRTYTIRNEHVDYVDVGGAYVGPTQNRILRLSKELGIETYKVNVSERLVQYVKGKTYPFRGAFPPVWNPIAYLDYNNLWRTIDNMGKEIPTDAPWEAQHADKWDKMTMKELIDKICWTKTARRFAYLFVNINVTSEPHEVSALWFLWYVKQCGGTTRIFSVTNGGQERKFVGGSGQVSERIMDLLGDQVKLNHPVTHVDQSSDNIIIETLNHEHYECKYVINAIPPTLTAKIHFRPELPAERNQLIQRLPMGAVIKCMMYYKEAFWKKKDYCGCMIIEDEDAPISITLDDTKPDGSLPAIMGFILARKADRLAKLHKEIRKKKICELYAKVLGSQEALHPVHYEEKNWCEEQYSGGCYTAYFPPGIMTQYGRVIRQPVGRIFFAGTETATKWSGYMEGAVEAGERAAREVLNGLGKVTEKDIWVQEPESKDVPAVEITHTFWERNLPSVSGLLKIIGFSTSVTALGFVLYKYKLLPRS
Protocol: (§1) A total of 99 µL of substrate working solution was added into 1.1 mL incubation tubes and then 1 µL of the test compound/control working solution or DMSO (vehicle control) was added, mixed well, and pre-incubated at 37 °C for 5 min. MAO-A (0.005 mg/mL) and MAO-B (0.02 mg/mL) were pre-incubated in the working solution at 37 °C for 5 min. A total of 100 µL of pre-incubated MAO-A or MAO-B working solution was added to incubation tubes to start the reaction, mixed well, and incubated at 37 °C for 15 min. […] All samples were centrifuged at 4000 rpm at 4 °C for 15 min, then 100 µL supernatant with 100 µL of water was transferred for LC-MS/MS analysis.
(§2) Enzyme activity (%) = PAR with compound/PAR vehicle × 100.
(§3) The oxidation of kynuramine to 4-hydroxyquinoline generated was the in vitro marker reaction of MAO-A and MAO-B enzymes.

[2] = target: T2, recombinant human MAO-B (Homo sapiens, UniProt P27338); experiment: as above; format: biochemical
T2 construct: purchased Corning
T2 sequence (P27338 1-520): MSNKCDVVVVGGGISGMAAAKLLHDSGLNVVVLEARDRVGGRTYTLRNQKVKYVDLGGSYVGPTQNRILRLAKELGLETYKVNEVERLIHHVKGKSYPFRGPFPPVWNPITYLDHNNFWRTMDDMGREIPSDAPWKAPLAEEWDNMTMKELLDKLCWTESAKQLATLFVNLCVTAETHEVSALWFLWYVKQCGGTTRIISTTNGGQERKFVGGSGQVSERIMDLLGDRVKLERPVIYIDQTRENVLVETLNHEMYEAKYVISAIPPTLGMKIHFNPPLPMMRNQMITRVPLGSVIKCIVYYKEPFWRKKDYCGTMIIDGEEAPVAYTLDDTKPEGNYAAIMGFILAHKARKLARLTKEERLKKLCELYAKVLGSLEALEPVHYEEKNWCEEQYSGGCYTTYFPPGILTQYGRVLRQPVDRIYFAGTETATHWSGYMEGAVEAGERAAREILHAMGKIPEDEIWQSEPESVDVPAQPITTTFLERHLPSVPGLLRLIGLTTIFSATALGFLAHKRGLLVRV
Protocol: as §1, §2, §3

[3] = tested on: CYP3A4/5; experiment: in vitro; details: human, microsomes
[4] = target: T3, CYP2C9 (Homo sapiens, UniProt P11712); experiment: CYP direct inhibition in human liver microsomes
T3 sequence (P11712 whole entry): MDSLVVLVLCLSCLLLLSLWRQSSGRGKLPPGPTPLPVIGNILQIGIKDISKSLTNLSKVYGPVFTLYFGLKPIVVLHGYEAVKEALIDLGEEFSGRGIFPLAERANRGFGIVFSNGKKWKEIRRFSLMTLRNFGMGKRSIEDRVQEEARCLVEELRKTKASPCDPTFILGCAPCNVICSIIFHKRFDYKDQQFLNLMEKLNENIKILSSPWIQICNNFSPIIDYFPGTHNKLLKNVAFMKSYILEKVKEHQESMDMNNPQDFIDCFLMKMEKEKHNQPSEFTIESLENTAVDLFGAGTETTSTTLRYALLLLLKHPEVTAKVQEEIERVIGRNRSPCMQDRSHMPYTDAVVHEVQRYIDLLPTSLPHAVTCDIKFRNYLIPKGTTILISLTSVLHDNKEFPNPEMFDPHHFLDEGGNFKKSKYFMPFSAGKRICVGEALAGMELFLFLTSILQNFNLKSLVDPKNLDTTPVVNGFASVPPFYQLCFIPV

[5] = target: T4, CYP2B6 (Homo sapiens, UniProt P20813); experiment: biochemical
T4 sequence (P20813 1-491): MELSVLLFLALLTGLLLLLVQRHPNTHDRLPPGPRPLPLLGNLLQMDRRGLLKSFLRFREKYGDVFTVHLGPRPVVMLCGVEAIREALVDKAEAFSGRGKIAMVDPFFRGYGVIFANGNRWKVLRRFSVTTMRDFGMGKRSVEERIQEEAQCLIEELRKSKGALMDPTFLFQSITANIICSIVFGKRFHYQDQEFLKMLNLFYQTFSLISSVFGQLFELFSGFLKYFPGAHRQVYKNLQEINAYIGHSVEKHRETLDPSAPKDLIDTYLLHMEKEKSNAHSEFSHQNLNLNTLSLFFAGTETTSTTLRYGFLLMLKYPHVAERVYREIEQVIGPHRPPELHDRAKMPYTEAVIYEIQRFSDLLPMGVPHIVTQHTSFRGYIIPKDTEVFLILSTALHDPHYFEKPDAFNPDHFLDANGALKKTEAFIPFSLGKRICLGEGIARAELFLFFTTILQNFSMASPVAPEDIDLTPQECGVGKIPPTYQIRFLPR

[6] = target: CYP2D6 (Homo sapiens, UniProt P10635); experiment: Time-dependent inhibition (IC50 shift) in human liver microsomes
Sequence of CYP2D6 (P10635 whole entry): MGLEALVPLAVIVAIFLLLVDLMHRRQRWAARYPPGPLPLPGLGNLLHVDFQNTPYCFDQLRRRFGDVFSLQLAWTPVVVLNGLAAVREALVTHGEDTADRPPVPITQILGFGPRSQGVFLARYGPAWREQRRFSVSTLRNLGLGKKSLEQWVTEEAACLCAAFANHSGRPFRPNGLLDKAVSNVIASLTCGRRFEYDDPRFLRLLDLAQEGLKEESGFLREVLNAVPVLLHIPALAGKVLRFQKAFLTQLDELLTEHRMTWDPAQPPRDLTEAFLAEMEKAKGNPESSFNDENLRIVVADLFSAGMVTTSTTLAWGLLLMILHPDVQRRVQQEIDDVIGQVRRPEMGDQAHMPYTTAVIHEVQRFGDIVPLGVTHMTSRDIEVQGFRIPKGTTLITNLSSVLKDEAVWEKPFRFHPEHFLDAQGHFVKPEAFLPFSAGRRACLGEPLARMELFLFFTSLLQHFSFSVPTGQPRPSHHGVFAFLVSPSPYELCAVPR

[7] = in vitro; details: human, plasma, pH 7.4
[8] = target: CYP2C19 (Homo sapiens, UniProt P33261); details: microsomes
Sequence of CYP2C19 (P33261 whole entry): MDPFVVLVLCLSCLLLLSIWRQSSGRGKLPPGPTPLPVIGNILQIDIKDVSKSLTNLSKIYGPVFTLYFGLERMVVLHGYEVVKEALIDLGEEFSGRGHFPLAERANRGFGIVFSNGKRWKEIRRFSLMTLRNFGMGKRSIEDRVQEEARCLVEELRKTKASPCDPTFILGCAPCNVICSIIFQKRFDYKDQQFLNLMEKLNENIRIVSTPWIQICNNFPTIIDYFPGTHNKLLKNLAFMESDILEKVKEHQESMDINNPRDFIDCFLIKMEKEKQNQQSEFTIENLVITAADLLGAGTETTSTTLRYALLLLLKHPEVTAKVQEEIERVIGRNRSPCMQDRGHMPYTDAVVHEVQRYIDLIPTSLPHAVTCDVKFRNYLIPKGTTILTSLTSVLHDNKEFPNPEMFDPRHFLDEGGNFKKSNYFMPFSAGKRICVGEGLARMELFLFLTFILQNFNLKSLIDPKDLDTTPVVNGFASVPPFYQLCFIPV

[9] = set-up: method as in PMID 35684130; details: cited from earlier work
[10] = Rat pharmacokinetics after IV or oral dosing; format: in vivo, Male Sprague–Dawley rats; details: fa = fb/((1 − CL/Qh) × 100%)
Protocol: An estimation of the maximum plasma concentration of salidroside in humans was made from the pharmacokinetics in rats after oral dosing and the recommended human daily dose of salidroside of 60 mg (two 30 mg capsules). Male Sprague–Dawley rats were dosed either with IV or orally at 12 mg/kg (N = 6/group). Salidroside was moderately cleared (21 mL/min/kg) and well absorbed orally.

[11] = target: T3, CYP2C9; details: microsomes
[12] = tested on: rat CYP enzymes (probe drug cocktail); set-up: method as in PMID 29796228; details: salidroside 30 mg/kg/day, eight daily doses, day 8; cited from earlier work

Compound: OC[C@H]1O[C@@H](OCCc2ccc(O)cc2)[C@H](O)[C@@H](O)[C@@H]1O [Salidroside]
- pIC50 [1]: < 4.30
- inhibition at 50 µM ([1]; at 50 µM, read-out: maximum % inhibition of MAO-A): 13.3%
- inhibition at 50 µM ([2]; at 50 µM, read-out: maximum % inhibition of MAO-B): 22.5%
- pIC50 ([2]; substrate kynuramine (20 µM), mean of N = 2): < 4.30
- IC50 at 10 min [3]: > 50 µM
- pIC50 [4]: < 4.30
- pIC50 [5]: < 4.30
- pIC50 [6]: < 4.30
- fraction unbound at 5 h, 5 µM [7]: 0.985
- IC50 Shift [8]: no shift
- genotoxicity [9]: not genotoxic
- estimated oral absorption (fa) [10]: 46%
- IC50 Shift [11]: no shift
- decrease of losartan AUC0-∞ [12]: ≈ 2 fold
- decrease of midazolam AUC0-∞ [12]: ≈ 2 fold
